Reference: ChEMBL document CHEMBL1146306, “Design and synthesis of conformationally constrained tri-substituted ureas as potent antagonists of the human glucagon receptor” (Bioorg Med Chem Lett, 2007)

What was measured:
[1] = molecular target: T1, Gastric inhibitory polypeptide receptor (Homo sapiens, UniProt P48546); assay: Antagonist activity at human GIP receptor transfected in CHO cells assessed as inhibition of […] cAMP accumulation; type: functional, cell-based
T1 sequence (P48546 whole entry): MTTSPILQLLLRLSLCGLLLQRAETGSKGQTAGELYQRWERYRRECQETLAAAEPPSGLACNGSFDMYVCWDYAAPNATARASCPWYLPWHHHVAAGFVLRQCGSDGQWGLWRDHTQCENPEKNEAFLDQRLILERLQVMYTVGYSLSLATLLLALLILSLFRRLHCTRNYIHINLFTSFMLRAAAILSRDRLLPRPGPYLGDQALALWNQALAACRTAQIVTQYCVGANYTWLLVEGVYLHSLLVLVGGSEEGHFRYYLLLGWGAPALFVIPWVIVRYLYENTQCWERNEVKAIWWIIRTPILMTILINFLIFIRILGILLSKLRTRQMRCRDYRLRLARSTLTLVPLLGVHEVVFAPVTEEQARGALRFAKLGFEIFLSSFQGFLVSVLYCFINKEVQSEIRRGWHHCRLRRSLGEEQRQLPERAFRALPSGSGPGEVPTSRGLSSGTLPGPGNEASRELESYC

[2] = Plasma clearance in mouse at 1 mg/kg, iv and 2 mg/kg, po; type: ADME, organism-based
[3] = Volume of distribution at steady state in mouse at 1 mg/kg, iv and 2 mg/kg, po; type: ADME, organism-based; conditions: in vivo, read-out: Vdss
[4] = Half life in mouse at 1 mg/kg, iv and 2 mg/kg, po; type: ADME, organism-based; conditions: in vivo
[5] = Cmax in mouse at 1 mg/kg, iv and 2 mg/kg, po; type: ADME, organism-based; conditions: in vivo
[6] = Bioavailability in mouse at 1 mg/kg, iv and 2 mg/kg, po; type: ADME, organism-based; conditions: in vivo
[7] = molecular target: T2, Glucagon receptor (Homo sapiens, UniProt P47871); assay: Displacement of [125]glucagon from human glucagon receptor expressed in CHO cells; type: cell-based
[8] = molecular target: T2, Glucagon receptor; assay: Antagonist activity at human glucagon receptor transfected in CHO cells assessed as inhibition of glucagon-induced cAMP accumulation; type: functional, cell-based
[9] = tested on: Mus musculus; assay: Inhibition of glucagon-induced hyperglycemic response in transgenic mouse expressing human glucagon receptor at 3 mg/kg, po after 24 mins relative to control; type: functional; conditions: 0.4 h
[10] = tested on: Mus musculus; assay: Inhibition of glucagon-induced hyperglycemic response in transgenic mouse expressing human glucagon receptor at 10 mg/kg, po after 24 mins relative to control; type: functional; conditions: 0.4 h
[11] = tested on: Mus musculus; assay: Inhibition of glucagon-induced hyperglycemic response in transgenic mouse expressing human glucagon receptor at 30 mg/kg, po after 24 mins relative to control; type: functional; conditions: 0.4 h
[12] = tested on: Mus musculus; assay: Decrease in non-fasting blood glucose level in transgenic diabetic mouse expressing human glucagon receptor at 3 mg/kg, po after 3 days relative to lean control; type: functional; design: scale not given: the % may be the effect or the level left
[13] = tested on: Mus musculus; assay: Decrease in non-fasting blood glucose level in transgenic diabetic mouse expressing human glucagon receptor at 3 mg/kg, po after 10 days relative to lean control; type: functional; design: scale not given: the % may be the effect or the level left
[14] = tested on: Mus musculus; assay: Decrease in non-fasting blood glucose level in transgenic diabetic mouse expressing human glucagon receptor at 10 mg/kg, po after 3 days relative to lean control; type: functional; design: scale not given: the % may be the effect or the level left
[15] = tested on: Mus musculus; assay: Decrease in non-fasting blood glucose level in transgenic diabetic mouse expressing human glucagon receptor at 10 mg/kg, po after 10 days relative to lean control; type: functional; design: scale not given: the % may be the effect or the level left
[16] = tested on: CHO; assay: Selectivity for human glucagon receptor over human GIP receptor expressed in CHO cells by glucagon-stimulated cAMP accumulation assay; type: cell-based

T2 sequence (P47871 whole entry): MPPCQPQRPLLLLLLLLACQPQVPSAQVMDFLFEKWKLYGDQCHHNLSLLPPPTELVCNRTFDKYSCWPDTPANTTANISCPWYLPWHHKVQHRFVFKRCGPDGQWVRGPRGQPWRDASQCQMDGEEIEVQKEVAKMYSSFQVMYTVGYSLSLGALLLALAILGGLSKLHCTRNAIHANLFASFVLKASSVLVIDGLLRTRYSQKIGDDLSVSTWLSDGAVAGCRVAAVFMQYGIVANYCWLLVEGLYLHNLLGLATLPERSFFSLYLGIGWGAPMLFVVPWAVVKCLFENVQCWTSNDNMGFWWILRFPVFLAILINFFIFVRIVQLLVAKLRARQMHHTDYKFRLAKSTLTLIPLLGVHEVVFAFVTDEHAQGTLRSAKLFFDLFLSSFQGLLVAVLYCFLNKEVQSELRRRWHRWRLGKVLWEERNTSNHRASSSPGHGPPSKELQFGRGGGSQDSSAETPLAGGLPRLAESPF

IC50 [1] [nM]	IC50 [7] [nM]	IC50 ([8]; read-out: IC50) [nM]	SMILES	also measured
	3380		CC(C)(C)[C@H]1CC[C@@H](N(C(=O)Nc2ccc(OC(F)(F)F)cc2)C2CCc3cc(C(=O)NCCC(=O)O)ccc32)CC1 (stereo not given in full)	
	22	85	O=C(Nc1nn[nH]n1)c1ccc2c(c1)CCC2N(C(=O)Nc1ccc(OC(F)(F)F)cc1)c1ccc(C2CCCCC2)cc1 (stereo not given)	
435	1.01	18	CC(C)(C)[C@H]1CC[C@@H](N(C(=O)Nc2ccc(OC(F)(F)F)cc2)C2CCc3cc(C(=O)Nc4nn[nH]n4)ccc32)CC1 (single isomer, unassigned)	
4260	7.6	61	CC(C)(C)[C@H]1CC[C@H](N(C(=O)Nc2cc(C(F)(F)F)cc(C(F)(F)F)c2)C2CCc3cc(C(=O)Nc4nnn[nH]4)ccc32)CC1 (stereo not given in full)	
	62	3430	O=C(Nc1nnn[nH]1)c1ccc2c(c1)CCC2N(C(=O)Nc1ccc(OC(F)(F)F)cc1)c1ccc(OC(F)(F)F)cc1 (stereo not given)	
2020	28	46	CC(C)(C)[C@H]1CC[C@H](N(C(=O)Nc2cc(C(F)(F)F)cc(C(F)(F)F)c2)C2CCc3cc(C(=O)NCCC(=O)O)ccc32)CC1 (stereo not given in full)	
610	49	1470	CC(C)(C)[C@H]1CC[C@H](N(C(=O)c2ccc(OC(F)(F)F)cc2)C2CCc3cc(C(=O)Nc4nnn[nH]4)ccc32)CC1 (stereo not given in full)	
118	4.8	67	CC(C)(C)[C@H]1CC[C@H](N(C(=O)Cc2ccc(OC(F)(F)F)cc2)C2CCc3cc(C(=O)Nc4nnn[nH]4)ccc32)CC1 (stereo not given in full)	
	130	2780	CC(C)(C)[C@H]1CC[C@H](N(C(=O)c2ccc(OC(F)(F)F)cc2)C2CCc3cc(C(=O)NCCC(=O)O)ccc32)CC1 (stereo not given in full)	
286	18	500	CC(C)(C)[C@H]1CC[C@H](N(C(=O)Cc2ccc(OC(F)(F)F)cc2)C2CCc3cc(C(=O)NCCC(=O)O)ccc32)CC1 (stereo not given in full)	
	216	795	CC(C)(C)[C@H]1CC[C@@H](N(C(=O)Nc2ccc(OC(F)(F)F)cc2)C2CCc3cc(C(=O)Nc4nn[nH]n4)ccc32)CC1 (stereo not given in full)	
	820		O=C(O)CCNC(=O)c1ccc2c(c1)CCC2N(C(=O)Nc1ccc(OC(F)(F)F)cc1)c1ccc(OC(F)(F)F)cc1 (stereo not given)	IC50 ([8]; cho): Not Active
	68	189	O=C(O)CCNC(=O)c1ccc2c(c1)CCC2N(C(=O)Nc1ccc(OC(F)(F)F)cc1)c1ccc(C2CCCCC2)cc1 (stereo not given)	
132			CC(C)(C)[C@H]1CC[C@H](N(C(=O)Nc2ccc(OC(F)(F)F)cc2)C2CCc3cc(C(=O)NCCC(=O)O)ccc32)CC1 (stereo not given in full)	clearance [2]: 9 mL/min/kg; Vd [3]: 1.6 L/kg; half-life [4]: 5.6 h; Cmax [5]: 130 nM; bioavailability [6]: 17%; inhibition in vivo at 3 mg/kg [9]: 51%; inhibition in vivo at 10 mg/kg [10]: 59%; inhibition in vivo at 30 mg/kg [11]: 122%; Activity [12]: 72%; Activity [13]: 87%; Activity [14]: 99%; Activity [15]: 106%
296			CC(C)(C)[C@H]1CC[C@H](N(C(=O)Nc2ccc(OC(F)(F)F)cc2)C2CCc3cc(C(=O)Nc4nn[nH]n4)ccc32)CC1 (stereo not given in full)	
1280	10	11	CC(C)(C)[C@H]1CC[C@H](N(C(=O)Nc2cc(Cl)cc(Cl)c2)C2CCc3cc(C(=O)NCCC(=O)O)ccc32)CC1 (stereo not given in full)	Fold change [16]: > 100
603	3.8	46	CC(C)(C)[C@H]1CC[C@@H](N(C(=O)Nc2ccc(OC(F)(F)F)cc2)C2CCc3cc(C(=O)NCCC(=O)O)ccc32)CC1 (single isomer, unassigned)	
3530	4.9	5.9	CC(C)(C)[C@H]1CC[C@H](N(C(=O)Nc2cc(Cl)cc(Cl)c2)C2CCc3cc(C(=O)Nc4nn[nH]n4)ccc32)CC1 (stereo not given in full)	Fold change [16]: > 500

SMILES	IC50 [1] [nM]	IC50 [7] [nM]	IC50 ([8]; read-out: IC50) [nM]	also measured
CC(C)(C)[C@H]1CC[C@H](N(C(=O)Nc2ccc(OC(F)(F)F)cc2)C2CCOc3cc(C(=O)NCCC(=O)O)ccc32)CC1 (stereo not given in full)	217			clearance [2]: 13 mL/min/kg; Vd [3]: 1.4 L/kg; half-life [4]: 3.4 h; Cmax [5]: 60 nM; bioavailability [6]: 15%
CC(C)(C)[C@H]1CC[C@H](N(C(=O)Nc2ccc(OC(F)(F)F)cc2)C2CCCc3cc(C(=O)NCCC(=O)O)ccc32)CC1 (stereo not given in full)	171			clearance [2]: 9 mL/min/kg; Vd [3]: 0.9 L/kg; half-life [4]: 2.5 h; Cmax [5]: 90 nM; bioavailability [6]: 10%
CC(C)(C)[C@H]1CC[C@H](N(C(=O)Nc2ccc(OC(F)(F)F)cc2)C2CCOc3cc(C(=O)Nc4nn[nH]n4)ccc32)CC1 (stereo not given in full)	117			
CC(C)(C)[C@H]1CC[C@H](N(C(=O)Nc2ccc(OC(F)(F)F)cc2)C2CCCc3cc(C(=O)Nc4nn[nH]n4)ccc32)CC1 (stereo not given in full)	178			clearance [2]: 6.4 mL/min/kg; Vd [3]: 1.4 L/kg; half-life [4]: 8 h; Cmax [5]: 40 nM; bioavailability [6]: 1.4%
